Read-outs that look alike come from different tables or passages of the source.

These results are taken from US20080161327A1, “Substituted 9-Alkyladenines and the Use Thereof” (Aderis Pharmaceuticals, Inc., priority 2005, published 2008).

Assay [1] has as its target T1, A3 (h) adenosine receptor (Homo sapiens, UniProt P0DMS8).
T1 construct: expressed in transfected cells
T1 sequence (P0DMS8 1-318): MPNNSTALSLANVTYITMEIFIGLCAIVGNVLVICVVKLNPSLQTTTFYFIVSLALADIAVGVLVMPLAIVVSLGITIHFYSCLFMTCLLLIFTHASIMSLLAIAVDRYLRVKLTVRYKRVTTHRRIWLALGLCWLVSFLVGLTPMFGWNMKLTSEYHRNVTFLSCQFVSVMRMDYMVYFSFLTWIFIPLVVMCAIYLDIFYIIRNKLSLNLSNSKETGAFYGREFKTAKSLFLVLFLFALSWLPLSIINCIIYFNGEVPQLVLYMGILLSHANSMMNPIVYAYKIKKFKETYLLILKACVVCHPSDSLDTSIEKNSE
Briefly: Human recombinant adenosine receptor binding, A3 (h), [3H]AB-MECA. To be noted: for Ki: Table 8, read-out: Affinity Ki, A3. The protocol:
(§1) The compounds of the present invention were subjected to in vitro human recombinant adenosine receptor binding assays. Scintillation counting was used as the method of detection.
(§2) The IC50 values (concentration causing a half-maximal inhibition of control specific binding) and Hill coefficients (nH) were determined by non-linear regression analysis of the competition curves using Hill equation curve fitting (Motulsky, H. and Christopoulos, A., Fitting Models to Biological Data Using Linear and Nonlinear Regression, GraphPad Software Inc. (2003)).
(§3) The inhibition constants (Ki) were calculated from the Cheng Prusoff equation (Motulsky, H. and Christopoulos, A., supra).

In assay [2] the target is T2, A2B (h) adenosine receptor (Homo sapiens, UniProt P29275).
T2 construct: expressed in transfected cells
T2 sequence (P29275 1-332): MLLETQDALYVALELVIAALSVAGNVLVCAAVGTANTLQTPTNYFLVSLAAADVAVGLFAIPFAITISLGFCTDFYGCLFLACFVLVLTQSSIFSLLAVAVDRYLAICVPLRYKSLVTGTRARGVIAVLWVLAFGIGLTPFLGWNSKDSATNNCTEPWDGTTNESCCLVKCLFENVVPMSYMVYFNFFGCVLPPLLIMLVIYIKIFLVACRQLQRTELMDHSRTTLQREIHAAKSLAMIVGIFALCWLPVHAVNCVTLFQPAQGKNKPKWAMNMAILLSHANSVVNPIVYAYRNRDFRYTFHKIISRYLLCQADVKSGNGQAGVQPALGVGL
Briefly: Human recombinant adenosine receptor binding, A2B (h), [3H]MRS 1754. To be noted: for Ki: Table 8, read-out: Affinity Ki, A2B. The protocol: as §1, §2, §3

Another assay has as its target T3, adenosine A1 receptors (Cavia porcellus, UniProt P47745).
T3 construct: from tissue; host or cells: guinea pig left atria
T3 sequence (P47745 1-326): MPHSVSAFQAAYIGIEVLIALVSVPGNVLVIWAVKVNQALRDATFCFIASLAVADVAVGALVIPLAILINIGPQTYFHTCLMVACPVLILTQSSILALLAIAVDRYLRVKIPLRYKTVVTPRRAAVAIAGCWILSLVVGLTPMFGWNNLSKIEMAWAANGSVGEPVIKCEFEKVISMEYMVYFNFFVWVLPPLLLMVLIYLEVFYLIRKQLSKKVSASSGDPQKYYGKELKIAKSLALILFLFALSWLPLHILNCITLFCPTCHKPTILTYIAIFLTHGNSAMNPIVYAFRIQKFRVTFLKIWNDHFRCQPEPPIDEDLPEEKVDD
The experiment in a line: Adenosine A1 in vitro functional test, negative inotropic response in left atria (Schild plot). The assay is classed as cell-based. To be noted: guinea pig left atria, agonist NECA or CPA, read-out: KB (antagonist dissociation constant). The protocol:
A1 assay—Negative inotropic response (Barrett, R. J. et al., J. Pharmacol. Exp. Ther. 265:227-236 (1993)): Guinea pig left atria were placed in organ baths filled with Krebs Henseleit solution gassed with 95% O2 and 5% CO2 and maintained at a temperature of 31° C. An initial resting tension of 1 g was placed on each tissue, which was allowed to equilibrate. Atria were stimulated electrically to produce twitch responses. A fixed concentration of the test compound was added and the tissue was allowed to equilibrate for 1 hour before cumulative additions of an adenosine agonist (either 5′-N-ethylcarboxamidoadenosine (NECA) or N^6-cyclopentyladenosine (CPA)) to generate a dose response curve. This procedure was repeated with different concentrations of test compounds to generate a family of dose response curves. Schild plots were constructed from the resultant concentration-effect curves, and KB (antagonist dissociation constant) values were obtained. The results presented in Table 9 are expressed as KB values (concentrations of test compound such that one-half of the tissue adenosine receptor population is occupied by the test compound).

Assay [3] addresses T4, A2A (h) adenosine receptor (Homo sapiens, UniProt P29274).
T4 construct: expressed in transfected cells
Briefly: Human recombinant adenosine receptor binding, A2A (h), [3H]CGS 21680. The protocol:
as §1, §2, §3

The target in assay [4] is T5, A1 (h) adenosine receptor (Homo sapiens, UniProt P30542).
T5 construct: expressed in transfected cells
T5 sequence (P30542 1-326): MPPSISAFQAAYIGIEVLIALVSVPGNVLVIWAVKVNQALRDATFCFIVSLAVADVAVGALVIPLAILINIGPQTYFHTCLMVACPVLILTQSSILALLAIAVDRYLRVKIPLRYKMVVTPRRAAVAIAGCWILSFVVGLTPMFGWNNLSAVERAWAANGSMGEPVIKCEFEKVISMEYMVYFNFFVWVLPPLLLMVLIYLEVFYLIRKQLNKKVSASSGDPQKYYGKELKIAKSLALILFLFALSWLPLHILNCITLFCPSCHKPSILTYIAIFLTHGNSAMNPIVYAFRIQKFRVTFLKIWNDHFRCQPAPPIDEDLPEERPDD
Briefly: Human recombinant adenosine receptor binding, A1 (h), [3H]DPCPX. To be noted: for A1 Selectivity vs. A2A / A1 Selectivity vs. A2B / A1 Selectivity vs. A3: ratio of Ki. The protocol:
as §1, §2, §3

Assay [5] has as its target T6, A1 (h) (agonist site) adenosine receptor (Homo sapiens, UniProt P30542).
T6 construct: expressed in transfected cells
T6 sequence (P30542 1-326): T5 sequence (P30542 1-326)
Briefly: Human recombinant adenosine receptor binding, A1 (h) (agonist site), [3H]CCPA. To be noted: for Ki / IC50 / nH (Hill coefficient), A1 (h) (agonist site): [3H]CCPA, Table 5; for Ki: Cheng Prusoff. The protocol: as §1, §2, §3

Setting [6] is: Cheng Prusoff, Table 6, read-out: Ki, A2A (h).
The mark [7] stands for this setting: Table 8, read-out: Affinity Ki, A2A.
The mark [8] stands for this setting: Table 8, read-out: Affinity Ki, A1.
[9] abbreviates: [3H]DPCPX, Cheng Prusoff, Table 5, read-out: Ki, A1 (h).

T4 sequence (P29274 whole entry): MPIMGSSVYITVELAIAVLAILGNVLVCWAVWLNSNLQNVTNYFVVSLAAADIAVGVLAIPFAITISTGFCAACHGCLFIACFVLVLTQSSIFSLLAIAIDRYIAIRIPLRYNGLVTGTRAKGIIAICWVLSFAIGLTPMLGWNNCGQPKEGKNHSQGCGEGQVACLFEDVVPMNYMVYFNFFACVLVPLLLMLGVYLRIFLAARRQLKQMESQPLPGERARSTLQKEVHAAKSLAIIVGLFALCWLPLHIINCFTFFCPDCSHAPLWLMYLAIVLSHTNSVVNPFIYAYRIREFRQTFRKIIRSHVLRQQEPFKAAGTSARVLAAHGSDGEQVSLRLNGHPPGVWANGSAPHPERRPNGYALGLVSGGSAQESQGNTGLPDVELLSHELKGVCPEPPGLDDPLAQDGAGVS

On to `CC(C)N(C)c1nc2c(NC3CC4CC3CC4OCCCS(=O)(=O)O)ncnc2n1C` (single isomer, unassigned) [1 (−isomer)], for which the Ki (usually a dissociation constant, usually derived from enzyme kinetics or from competition with a known ligand) in assay [1] is above 100 µM; in assay [2], above 100 µM; in assay [3] (setting [6]), 82 µM; in assay [3] (setting [7]), 82 µM; in assay [4] (setting [8]), 1.1 µM; in assay [4] (setting [9]) it was 1.1 µM. Further, in assay [5], the Ki amounted to 1.8 µM. The Kb (in general, the affinity of an antagonist, worked out from how it opposes an agonist) at adenosine A1 receptors was 0.3 µM. In addition, the 50% inhibitory concentration (IC50) (commonly the concentration at which inhibition is half-maximal) stood at 100 µM in assay [3] (Table 6); 1.8 µM in assay [4] ([3H]DPCPX, Table 5); 4.3 µM in assay [5]. Also, in assay [3] (Table 6), the “nH (Hill coefficient), A2A (h)” value is listed as 1.4. Moreover, the “nH (Hill coefficient), A1 (h)” value in assay [4] ([3H]DPCPX, Table 5) is reported as 1.0. Further, the “A1 Selectivity vs. A2A” value in assay [4] (Table 8) is reported as 75. In assay [4] (Table 8), the “A1 Selectivity vs. A2B” value is above 3000. For the same compound, the “A1 Selectivity vs. A3” value in assay [4] (Table 8) was above 3000. In addition, in assay [5], the “nH (Hill coefficient), A1 (h) (agonist site)” value was 1.0.

For `CC(C)N(C)c1nc2c(NC3CC4CC3CC4OCCCS(=O)(=O)O)ncnc2n1C` (single isomer, unassigned) [Compound 1 (+isomer)], the concentration for half-maximal inhibition (IC50) was above 100 µM in assay [1] (Table 7, N.C. = not calculable, less than 25% inhibition at the highest tested concentration); 3.2 µM in assay [3] (Table 6); 0.052 µM in assay [4] ([3H]DPCPX, Table 5); 0.21 µM in assay [5]. Further, the Ki in assay [1] was above 100 µM; in assay [2], above 100 µM; in assay [3] (setting [6]), 2.6 µM; in assay [3] (setting [7]), 2.6 µM; in assay [4] (setting [8]) it was 0.032 µM; in assay [4] (setting [9]), 0.032 µM. In addition, the Ki in assay [5] stood at 0.085 µM. In addition, the Kb on adenosine A1 receptors turned out to be 32 µM. Further, in assay [3] (Table 6), the “nH (Hill coefficient), A2A (h)” value was determined as 0.8. Also, the “nH (Hill coefficient), A1 (h)” value in assay [4] ([3H]DPCPX, Table 5) was found to be 0.9. Moreover, the “A1 Selectivity vs. A2A” value in assay [4] (Table 8) was 81. In addition, in assay [4] (Table 8), the “A1 Selectivity vs. A2B” value is listed as above 3000. Further, the “A1 Selectivity vs. A3” value in assay [4] (Table 8) is listed as above 3000. Moreover, the “nH (Hill coefficient), A1 (h) (agonist site)” value in assay [5] stood at 1.3.

As for `CC(C)N(C)c1nc2c(N[C@H]3CC[C@H](OCCCS(=O)(=O)O)CC3)ncnc2n1C` [Compound 6, N^6-[trans-4′-(^3-sulfopropoxy)cyclohexyl]-8-isopropylmethylamino-9-methyladenine], the Kb on adenosine A1 receptors turned out to be 85 µM.

In the case of `CC(C)N(C)c1nc2c(NC3CC4CC3CC4O)[n+](C)cnc2n1C.[Cl-]` (stereo not drawn) [Compound 14, N^6-(endo-5′-hydroxynorbornyl)-1-methyl-8-isopropylmethylamino-9-methyladenine chloride], the “Percent Inhibition of Control Specific Binding, A3 (h)” value in assay [1] (compound at 1×10^−5M, HEK-293 cells, [3H]AB-MECA 0.15 nM) was determined as 5. Further, in assay [2] (compound at 1×10^−5M, HEK-293 cells, [3H]MRS 1754 0.5 nM), the “Percent Inhibition of Control Specific Binding, A2B (h)” value was found to be 5. Further, the “Percent Inhibition of Control Specific Binding, A2A (h)” value in assay [3] (compound at 1×10^−5M, HEK-293 cells, [3H]CGS 21680 6 nM) was −9. The “Percent Inhibition of Control Specific Binding, A1 (h)” value in assay [4] (compound at 1×10^−5M, CHO cells, [3H]DPCPX 1 nM) is −1. The “Percent Inhibition of Control Specific Binding, A1 (h) (agonist site)” value in assay [5] (compound at 1×10^−5M, CHO cells, [3H]CCPA 1 nM) is listed as 18.
